For 16 molecules, inhibition results are on record in patent publication US9688691B2, “Macrocyclic quinazole derivatives and their use as MTKI” (Janssen Pharmaceutica NV, priority 2004, dated 2017).

Common to all, as to assay type: biochemical
One assay concerns the target cSRC (h) (Homo sapiens, UniProt P12931). As to the kind of experiment: Kinase profiling, glass-fiber filter technology: cSRC. Particulars: test concentration of 10^−6 M; read-out: cSRC inhibition score. Here is the method: (§1) The in vitro inhibition of a panel of kinases was assessed using the glass-fiber filter technology as described by Davies, S. P. et al., Biochem J. (2000), 351; p. 95-105.
(§2) In the glass-fiber filter technology the activity of the kinase of interest is measured using an appropriate substrate that is incubated with the aforementioned kinase protein in the presence of (^33P) radiolabeled ATP. (^33P) Phosporylation of the substrate is subsequently measured as radioactivity bound on a glassfiber-filter.
(§3) All kinases are pre-diluted to a 10× working concentration prior to addition into the assay. The composition of the dilution buffer for each kinase is detailed below.
(§4) All substrates are dissolved and diluted to working stocks in de-ionised water.
(§5) In a final reaction volume of 25 μl, cSRC (h) (5-10 mU) is incubated with 8 mM MOPS pH 7.0, 0.2 mM EDTA, 250 μM KVEKIGEGTYGVVYK (Cdc2 peptide), 10 mM MgAcetate and [γ-^33P-ATP] (specific activity approx. 500 cpm/pmol, concentration as required). The reaction is initiated by the addition of the MgATP mix. After incubation for 40 minutes at room temperature, the reaction is stopped by the addition of 5 μl of a 3% phosphoric acid solution.
10 μl of the reaction is then spotted onto a P30 filtermat and washed three times for 5 minutes in 75 mM phosphoric acid and once in methanol prior to drying and scintillation counting.

The target of another assay is EGFR (h) (Homo sapiens, UniProt P00533). As to the kind of experiment: Kinase profiling, glass-fiber filter technology: EGFR. As to conditions: test concentration of 10^−6 M; read-out: EGFR inhibition score. The method, then:
as §1, §2, §3, §4
as §5, with “EGFR” for “cSRC”, “10 mM MnCl2, 0.1 mg/ml poly(Glu, Tyr) 4:1,” for “250 μM KVEKIGEGTYGVVYK (Cdc2 peptide),”, “solution. 10 μl of the reaction is then spotted onto a Filtermat A and washed three times for 5 minutes in 75 mM phosphoric acid and once in methanol prior to drying and scintillation counting.” for “solution.”

In another assay the target is Fyn human (Homo sapiens, UniProt P06241). As to the kind of experiment: Kinase profiling, glass-fiber filter technology: Fyn. Particulars: test concentration of 10^−6 M; read-out: Fyn inhibition score. Here is the method:
as §1, §2, §3, §4
as §5, with “Fyn human” for “cSRC (h)”, “50” for “8”, “Tris” for “MOPS”, “7.5, 0.1” for “7.0, 0.2”, “EGTA, 0.1 mM Na3VO4,” for “EDTA,”, “solution. 10 μl of the reaction is then spotted onto a P30 filtermat and washed three times for 5 minutes in 75 mM phosphoric acid and once in methanol prior to drying and scintillation counting.” for “solution.”

Another assay addresses Yes (h) (Homo sapiens, UniProt P07947). Description: Kinase profiling, glass-fiber filter technology: Yes. Particulars: test concentration of 10^−6 M; read-out: Yes inhibition score. Here is the method:
as §1, §2, §3, §4
as §5, with “Yes” for “cSRC”, “0.1 mg/ml poly(Glu, Tyr) 4:1,” for “250 μM KVEKIGEGTYGVVYK (Cdc2 peptide),”, “solution. 10 μl of the reaction is then spotted onto a Filtermat A and washed three times for 5 minutes in 75 mM phosphoric acid and once in methanol prior to drying and scintillation counting.” for “solution.”

For another assay, the target named is T1, Bmx (h) (Homo sapiens, UniProt P51813).
T1 sequence (P51813 1-675): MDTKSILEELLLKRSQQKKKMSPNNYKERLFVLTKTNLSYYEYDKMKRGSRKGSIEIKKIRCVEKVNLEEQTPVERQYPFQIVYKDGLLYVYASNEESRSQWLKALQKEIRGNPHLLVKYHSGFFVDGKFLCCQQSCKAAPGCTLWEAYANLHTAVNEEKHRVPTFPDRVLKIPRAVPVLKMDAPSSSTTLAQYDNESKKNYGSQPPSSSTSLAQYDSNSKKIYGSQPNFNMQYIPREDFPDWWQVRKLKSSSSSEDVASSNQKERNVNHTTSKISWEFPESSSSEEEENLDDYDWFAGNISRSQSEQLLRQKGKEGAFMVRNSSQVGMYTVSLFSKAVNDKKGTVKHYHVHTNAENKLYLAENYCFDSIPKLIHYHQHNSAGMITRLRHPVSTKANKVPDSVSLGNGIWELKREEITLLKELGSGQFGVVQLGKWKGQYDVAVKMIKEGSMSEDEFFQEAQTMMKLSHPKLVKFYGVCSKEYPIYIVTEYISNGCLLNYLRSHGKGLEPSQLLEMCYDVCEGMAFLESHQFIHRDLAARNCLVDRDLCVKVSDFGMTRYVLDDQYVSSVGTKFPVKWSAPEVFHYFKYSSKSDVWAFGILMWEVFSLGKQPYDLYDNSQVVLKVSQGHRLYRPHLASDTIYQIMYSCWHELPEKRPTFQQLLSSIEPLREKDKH
Description: Kinase profiling, glass-fiber filter technology: Bmx. As to conditions: test concentration of 10^−6 M; read-out: Bmx inhibition score. Here is the method:
as §1, §2, §3, §4
as §5, with “Bmx” for “cSRC”, “0.1 mg/ml poly(Glu, Tyr) 4:1,” for “250 μM KVEKIGEGTYGVVYK (Cdc2 peptide),”, “[γ-33P-ATP]” for “[γ-^33P-ATP]”, “solution. 10 μl of the reaction is then spotted onto a Filtermat A and washed three times for 5 minutes in 75 mM phosphoric acid and once in methanol prior to drying and scintillation counting.” for “solution.”

Some results are limits rather than exact numbers.

Fyn human, sequence (P06241 whole entry): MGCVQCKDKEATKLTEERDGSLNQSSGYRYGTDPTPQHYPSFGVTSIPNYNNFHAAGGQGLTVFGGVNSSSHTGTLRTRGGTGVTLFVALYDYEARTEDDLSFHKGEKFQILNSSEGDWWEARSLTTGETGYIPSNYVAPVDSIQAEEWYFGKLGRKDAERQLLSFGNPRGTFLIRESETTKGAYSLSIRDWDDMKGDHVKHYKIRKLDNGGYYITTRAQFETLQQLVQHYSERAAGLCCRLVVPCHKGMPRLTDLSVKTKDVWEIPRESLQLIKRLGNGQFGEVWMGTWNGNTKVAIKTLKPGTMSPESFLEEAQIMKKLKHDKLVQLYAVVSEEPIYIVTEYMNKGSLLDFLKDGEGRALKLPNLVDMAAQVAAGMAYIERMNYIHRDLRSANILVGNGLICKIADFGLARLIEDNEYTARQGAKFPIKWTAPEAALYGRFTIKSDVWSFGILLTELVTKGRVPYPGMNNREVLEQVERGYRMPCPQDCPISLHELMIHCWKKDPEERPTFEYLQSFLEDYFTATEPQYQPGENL
cSRC (h), sequence (P12931 whole entry): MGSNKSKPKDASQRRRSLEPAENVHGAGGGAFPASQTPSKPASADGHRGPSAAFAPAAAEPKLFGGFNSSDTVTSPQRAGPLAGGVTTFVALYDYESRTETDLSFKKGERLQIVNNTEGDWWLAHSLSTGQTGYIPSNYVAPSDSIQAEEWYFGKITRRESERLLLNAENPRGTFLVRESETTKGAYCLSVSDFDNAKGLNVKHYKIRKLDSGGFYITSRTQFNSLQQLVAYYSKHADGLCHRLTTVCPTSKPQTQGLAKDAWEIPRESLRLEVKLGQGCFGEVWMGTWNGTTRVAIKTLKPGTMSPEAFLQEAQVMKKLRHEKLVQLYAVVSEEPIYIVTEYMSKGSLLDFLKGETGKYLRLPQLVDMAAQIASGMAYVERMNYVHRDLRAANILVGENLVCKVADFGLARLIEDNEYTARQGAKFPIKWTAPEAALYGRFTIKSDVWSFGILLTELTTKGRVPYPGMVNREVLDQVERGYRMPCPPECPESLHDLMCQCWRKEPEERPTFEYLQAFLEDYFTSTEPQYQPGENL
EGFR (h), sequence (P00533 25-1210): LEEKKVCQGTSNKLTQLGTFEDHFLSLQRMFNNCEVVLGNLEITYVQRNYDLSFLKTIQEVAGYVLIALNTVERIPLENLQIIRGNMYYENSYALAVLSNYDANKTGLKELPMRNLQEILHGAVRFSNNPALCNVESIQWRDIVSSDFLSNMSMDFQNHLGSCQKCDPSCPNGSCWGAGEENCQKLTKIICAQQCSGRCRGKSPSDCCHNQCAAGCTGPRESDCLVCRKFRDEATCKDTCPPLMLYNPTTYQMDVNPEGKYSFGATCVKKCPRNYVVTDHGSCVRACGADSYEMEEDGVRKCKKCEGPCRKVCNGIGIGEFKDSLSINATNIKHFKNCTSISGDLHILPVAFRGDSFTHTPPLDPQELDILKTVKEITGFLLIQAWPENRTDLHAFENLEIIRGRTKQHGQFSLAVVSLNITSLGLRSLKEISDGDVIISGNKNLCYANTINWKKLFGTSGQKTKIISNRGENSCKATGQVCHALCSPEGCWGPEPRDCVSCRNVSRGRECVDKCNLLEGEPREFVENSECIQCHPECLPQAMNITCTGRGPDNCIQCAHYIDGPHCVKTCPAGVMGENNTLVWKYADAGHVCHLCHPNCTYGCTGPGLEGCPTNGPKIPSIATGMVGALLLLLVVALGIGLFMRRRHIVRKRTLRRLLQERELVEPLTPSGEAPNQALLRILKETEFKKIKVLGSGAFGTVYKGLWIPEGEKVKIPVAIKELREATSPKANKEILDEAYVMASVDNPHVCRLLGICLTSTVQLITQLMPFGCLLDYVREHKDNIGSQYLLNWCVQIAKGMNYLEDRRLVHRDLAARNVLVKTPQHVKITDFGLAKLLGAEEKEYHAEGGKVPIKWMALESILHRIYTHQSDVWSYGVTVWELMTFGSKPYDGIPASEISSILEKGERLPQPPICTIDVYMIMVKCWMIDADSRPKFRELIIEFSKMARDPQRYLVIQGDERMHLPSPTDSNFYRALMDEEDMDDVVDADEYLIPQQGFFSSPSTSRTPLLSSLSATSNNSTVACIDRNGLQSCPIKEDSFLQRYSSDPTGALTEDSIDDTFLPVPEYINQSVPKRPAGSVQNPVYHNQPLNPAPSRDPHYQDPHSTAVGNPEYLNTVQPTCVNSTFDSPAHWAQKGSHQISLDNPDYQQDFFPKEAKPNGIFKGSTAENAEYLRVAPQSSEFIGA
Yes (h), sequence (P07947 whole entry): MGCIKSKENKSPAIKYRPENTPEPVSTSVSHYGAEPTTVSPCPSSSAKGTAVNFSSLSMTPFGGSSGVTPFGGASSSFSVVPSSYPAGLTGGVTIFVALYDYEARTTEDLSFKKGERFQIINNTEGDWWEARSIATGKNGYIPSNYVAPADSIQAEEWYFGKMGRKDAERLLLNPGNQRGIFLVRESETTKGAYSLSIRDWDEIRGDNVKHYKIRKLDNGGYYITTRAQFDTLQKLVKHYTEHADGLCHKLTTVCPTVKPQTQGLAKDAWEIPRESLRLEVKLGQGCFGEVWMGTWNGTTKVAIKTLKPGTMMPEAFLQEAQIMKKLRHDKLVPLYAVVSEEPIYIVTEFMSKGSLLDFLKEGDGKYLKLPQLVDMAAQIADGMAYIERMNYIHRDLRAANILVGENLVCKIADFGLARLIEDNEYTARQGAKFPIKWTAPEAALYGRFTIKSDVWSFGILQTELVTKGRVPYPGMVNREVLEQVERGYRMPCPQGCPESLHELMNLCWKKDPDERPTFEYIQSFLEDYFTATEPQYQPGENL

As for `CC(=O)NCCNCCCOc1cc2ncnc3c2cc1OCCCNC(=O)[C@H](C)N(C)Cc1cc(F)c(Cl)cc1N3` [Compound 4], the inhibition at 1 µM at cSRC (h) was more than 80%; at EGFR (h), more than 80%; on Fyn human it was 60 to 80%; on Yes (h), more than 80%; on Bmx (h), 30 to 60%.
For `CC(=O)NCCNCCCOc1cc2ncnc3c2cc1OCCCCCN(C)Cc1ccc(Br)cc1N3` [Compound 13], the inhibition at 1 µM at cSRC (h) is more than 80%; on EGFR (h) it was more than 80%; on Yes (h), more than 80%; at Bmx (h), 60 to 80%.
For `C#Cc1ccc2c(c1)Nc1ncnc3cc(OCCCNCCS(C)(=O)=O)c(cc13)OCCCCCN(C)C2` [Compound 20], the inhibition at 1 µM on cSRC (h) was more than 80%; at Yes (h) it was more than 80%; on Bmx (h) it was 60 to 80%.
On to `CN1CCCCCOc2cc3c(ncnc3cc2OC[C@H](O)CNCCOCCO)Nc2cc(Cl)c(F)cc2C1` [Compound 17], for which the inhibition at 1 µM at cSRC (h) is more than 80%; at EGFR (h) it was more than 80%; at Fyn human, more than 80%; on Yes (h), more than 80%; on Bmx (h), 60 to 80%.
Regarding `C[C@H]1C(=O)NCCCOc2cc3c(ncnc3cc2OCCCN2CCN(C(=O)OC(C)(C)C)CC2)Nc2cc(Cl)c(F)cc2CN1C` [Int. 16], the inhibition at 1 µM on cSRC (h) was more than 80%; at EGFR (h), more than 80%; at Fyn human it was more than 80%; at Bmx (h) it was 30 to 60%.
Consider `CN1CCCCCOc2cc3c(ncnc3cc2OCCCNC(=O)OC(C)(C)C)Nc2cc(Br)ccc2C1` [Compound 11], for which the inhibition at 1 µM at cSRC (h) is 60 to 80%; at EGFR (h) it was more than 80%; at Fyn human it was 60 to 80%; at Yes (h), more than 80%; at Bmx (h), 10 to 30%.
Regarding `CN1CCCCCOc2cc3c(ncnc3cc2OCCCN2CCS(=O)(=O)CC2)Nc2cc(Cl)c(F)cc2C1` [Compound 19], the inhibition at 1 µM is more than 80% at cSRC (h); more than 80% on EGFR (h); more than 80% at Fyn human; more than 80% on Yes (h); 60 to 80% on Bmx (h).
For `CC(=O)NCCN1CCN(CCCOc2cc3ncnc4c3cc2OCCCNC(=O)[C@H](C)N(C)Cc2cc(F)c(Cl)cc2N4)CC1` [Compound 6], the inhibition at 1 µM is more than 80% on cSRC (h); more than 80% at EGFR (h); more than 80% on Fyn human; more than 80% at Yes (h); 30 to 60% on Bmx (h).
As for `COCCOCCOc1cc2ncnc3c2cc1OCCCCCN(C)Cc1ccc(Br)cc1N3` [Int. 43], the inhibition at 1 µM on cSRC (h), on EGFR (h), at Fyn human and on Yes (h) was more than 80% in each case.
For `CN1CCCCCOc2cc3c(ncnc3cc2OC[C@@H](O)CN2CCS(=O)(=O)CC2)Nc2cc(Br)ccc2C1` [Compound 12], the inhibition at 1 µM was more than 80% at cSRC (h); more than 80% at EGFR (h); more than 80% on Fyn human; more than 80% on Yes (h); 30 to 60% at Bmx (h).
Take `COc1cc2ncnc3c2cc1OCCCN(CCCN1CCOCC1)C(=O)[C@H](CC(C)C)NC(=O)Cc1ccc(Br)cc1N3` [Int. 25]: the inhibition at 1 µM was 30 to 60% at cSRC (h), more than 80% at EGFR (h), 30 to 60% at Fyn human and more than 80% on Yes (h).
On to `COc1cc2ncnc3c2cc1OCCCN(CCN1CCOCC1)C(=O)CNC(=O)Cc1ccc(Cl)cc1N3` [Compound 15], for which the inhibition at 1 µM on cSRC (h) was 30 to 60%; on EGFR (h) it was more than 80%; at Fyn human, 30 to 60%; at Yes (h) it was 60 to 80%.
Turning to `CC(=O)N(CCO)CCCOc1cc2ncnc3c2cc1OCCCNC(=O)[C@H](C)N(C)Cc1cc(F)c(Cl)cc1N3` [Compound 5], the inhibition at 1 µM on cSRC (h) was more than 80%; at EGFR (h), more than 80%; on Fyn human, 60 to 80%; on Yes (h), more than 80%; at Bmx (h) it was 30 to 60%.
Turning to `CC(=O)OCCN(C)CCCOc1cc2ncnc3c2cc1OCCCNC(=O)[C@H](C)N(C)Cc1cc(F)c(Cl)cc1N3` [Compound 2], the inhibition at 1 µM on cSRC (h) was more than 80%; on EGFR (h), more than 80%; at Fyn human it was more than 80%; at Yes (h), more than 80%; on Bmx (h), 30 to 60%.
For the molecule `CN1CCCCCOc2cc3c(ncnc3cc2OCCCNCCS(C)(=O)=O)Nc2cc(Cl)c(F)cc2C1` [Compound 18], the inhibition at 1 µM is more than 80% at cSRC (h); more than 80% at EGFR (h); more than 80% on Fyn human; more than 80% on Yes (h); 30 to 60% on Bmx (h).
Turning to `CN1CCCCCOc2cc3c(ncnc3cc2OCCCNCCS(C)(=O)=O)Nc2cc(Br)ccc2C1` [Compound 14], the inhibition at 1 µM is more than 80% at cSRC (h), more than 80% on EGFR (h), more than 80% at Yes (h) and 30 to 60% at Bmx (h).
